The subject of one experiment is S. mansoni adult worms. In words: S. mansoni adult worm motility screen (WormassayGP2), 72 h. Format: cell-based, Schistosoma mansoni. The following applies: for EC50: Schistosoma mansoni. The source says: Mice (Mus musculus HsdOLa:TO - Tuck Ordinary; Envigo, UK) were used for the mammalian-specific propagation of the S. mansoni life cycle. Experimental animals were infected with 4000 or 180 S. mansoni cercariae/mouse and perfused three- or seven-weeks post-infection to obtain S. mansoni juvenile or adult worms, respectively. Preparation steps following perfusion have been described previously. Briefly, the parasite material was washed three times with pre-warmed adult worm media (DMEM (Gibco, Paisley, UK) supplemented with 10% (v/v) Fetal Calf Serum (FCS, Gibco, Paisley, UK), 1% (v/v) L-glutamine (Gibco, Paisley, UK) and an antibiotic mixture (150 Units/ml penicillin and 150 μg/ml streptomycin; Gibco, UK)) to remove residual host contamination and incubated in a humidified environment containing 5% CO2 at 37 °C for at least 1 h.
For the evaluation of anti-schistosomal activity on the adult stage of the parasite, 7-wk old worms were transferred into 48 well tissue culture plates (1–3 worm pairs/well, in duplicate). […] DMSO (0.5%) and praziquantel (10 μM in 0.5% DMSO) were also included as negative and positive control treatments. Treated adult worms were incubated for 72 h in a humidified environment containing 5% CO2 at 37 °C. Parasite motility after compound treatment was assessed by a digital image processing-based system (WormassayGP2), modified after Wormassay. Following compound-parasite co-incubation, eggs were collected, fixed in formalin (10% v/v formaldehyde) and enumerated aiming to collect further information on any compound-induced effects on parasite fecundity and IVLE production.

Another experiment relates to S. mansoni schistosomula. In words: S. mansoni schistosomula high-throughput phenotype and motility screen (Roboworm), 72 h. Particulars: for EC50: Schistosoma mansoni. Format: cell-based, Schistosoma mansoni. On the procedure: Cercariae derived from the NMRI ([…]) Puerto Rican strain (PR-1) of S. mansoni were shed from two Biomphalaria glabrata strains, the NMRI albino and pigmented outbred strains, under intensified lighting conditions (1 h of incubation at 26 °C). Cercariae were then mechanically transformed into schistosomula as previously described.
High-throughput screening (HTS) of selected compounds was conducted as previously described. Briefly, newly transformed schistosomula were distributed in a 384-well tissue culture plate (PerkinElmer, cat 6007460, seeding density of 120 parasites/well). Each compound (at a single concentration or two-fold titrations) was transferred into individual wells alongside the positive and negative controls (AUR at 10 μM final concentration in 0.625% DMSO and 0.625% DMSO, respectively). Schistosomula/compound co-cultures were then incubated at 37 °C for 72 h in a humidified atmosphere containing 5% CO2. Following the co-culture period, automatic assessment of compound-induced schistosomula motility and phenotypic changes were conducted with the high-content imaging platform Roboworm using the image analysis model previously described by Paveley et al..

For experiment [1], the system named is adult S. japonicum male worms. In words: In vitro screening of S. japonicum adults at 100 nM (WormAssay motility, descriptors, severity score). Format: cell-based, Schistosoma japonicum. Also on record: key to DESCRIPTORS 48 h / DESCRIPTORS 72 h: Dark = dark; S = Slow; S-uncoord = uncoordinated slow movements; O-uncoord = uncoordinated fast movements; On sides = male worms are not adhering to dish with ventral sucker; Shrunk = worms are not flexing and are smaller than usual; Teg damage = outer surface (tegument of the worm) is damaged; Deg= degenerating; D = Dead. Particulars: for Effect on S. japonicum adult male worms: 5, 24, 48 and 72 h; for SEVERITY SCORES 5 h / SEVERITY SCORES 24 h / SEVERITY SCORES 48 h / SEVERITY SCORES 72 h: max = 4, one line per replicate. On the procedure: (§1) For each species, parasite recovery involved reverse perfusion of the hepatic portal and mesenteric system using DMEM (Fisher Scientific). Parasites were washed six times with Basch 169 medium supplemented with 100 U/ml penicillin and 100 μg/ml streptomycin before manually distributing approximately 5 males per well (on occasion 1 or 2 females might also be present) of a 24-well plate (Corning Costar 3524). […] The next morning, a final concentration of 100 nM compound (in 1 μL DMSO) was added to each well and the final volume made up to 2 ml with Basch 169 medium supplemented with antibiotics and FBS. Each compound was tested in triplicate (except for some instances tested in duplicate). […] The phenotypic characterisation of compound effects focused on male worms due to the greater range of their motility characteristics that include flexing, bending, stretching, sucker walking and adherence, compared to the more sedentary female worms. In addition to descriptors, WormAssay, as adapted for the schistosome, was used to measure average worm motility per well [72, 73].

Experiment [2] concerns Adult S. haematobium worms. In words: In vitro screening of S. haematobium adults at 100 nM (WormAssay motility, descriptors, severity score). Format: cell-based, Schistosoma haematobium. As to the method:
as §1

Setting [3] is: 72 h, Table 1, 72 h, two dose response titrations (0.313–10 μM), 95% CI in brackets, read-out: Activity on schistosomula (EC50, μM - 72 h) Motility.
Setting [4] is: 72 h, Table 1, 72 h, two dose response titrations (0.313–10 μM), 95% CI in brackets, read-out: Activity on schistosomula (EC50, μM - 72 h) Phenotype.
Where [5] appears, read: 72 h, Table 1, mean of phenotype and motility EC50, 72 h, read-out: Activity on schistosomula (EC50, μM - 72 h) Average.
Where [6] appears, read: Table 4, Series A, read-out: Anti-schistosomal activity EC50 Adult (nM) Motility.
Setting [7] is: Table 2, 72 h, titrations 0.0095–5 μM, WormassayGP2, read-out: Activity on adult worms (EC50, μM - 72 h) Motility.
The mark [8] stands for this setting: 72 h, Table 2, average of phenotype and motility EC50, 72 h, read-out: Activity on schistosomula (EC50, μM - 72 h) Average.
[9] abbreviates: 72 h, Table 2, motility, 72 h, three replicate titrations (0.313–10 μM), read-out: Activity on schistosomula (EC50, μM - 72 h) M.
Where [10] appears, read: 72 h, Table 2, phenotype, 72 h, three replicate titrations (0.313–10 μM), read-out: Activity on schistosomula (EC50, μM - 72 h) P.
[11] abbreviates: Table 4, Series A, read-out: Anti-schistosomal activity EC50 Schistosomula (μM) Motility.
The mark [12] stands for this setting: Table 4, Series A, read-out: Anti-schistosomal activity EC50 Schistosomula (μM) Phenotype.
Setting [13] is: S. japonicum, one line per replicate.

These results are taken from PMC8626775, “Anti-schistosomal activities of quinoxaline-containing compounds: From hit identification to lead optimisation” (European Journal of Medicinal Chemistry, 2021).

“And” between values parts separate entries of the source, which are not always exact repeats. Equal values may be shown once. “Also recorded” adds a separate entry of the source. Read-outs that look alike come from different tables or passages of the source.

The term EC50 denotes the concentration that produces a half-maximal response. As to `FC(F)(F)c1cccc(Nc2nc3ccccc3nc2Nc2cccc(C(F)(F)F)c2)c1` [Compound 11], in the experiment with S. mansoni adult worms (3.15 μM, lowest concentration tested), the “Effect on adult worm motility at 3.15 μM” value was “complete cessation of worm mobility”. In the experiment on S. mansoni adult worms, the “Effect on adult worm motility at 12.5 and 6.25 μM” value is on record as “particularly active”. Besides, the “Activity on schistosomula in the primary screen at 10 μM” value in the experiment with S. mansoni schistosomula (72 h) is “retained activity”. Also, the EC50 in the experiment on S. mansoni schistosomula (setting [3]) is 1.12 µM; with S. mansoni schistosomula (setting [4]), 1.38 µM; in the experiment with S. mansoni schistosomula (setting [5]), 1.25 µM.
In the case of `Cc1ccc(Nc2nc3ccccc3nc2Nc2ccc(C)c(C)c2)cc1C` [Compound 16], in the experiment on S. mansoni adult worms, the “Effect on adult worm motility at 12.5 and 6.25 μM” value was “particularly active”. In addition, in the experiment with S. mansoni schistosomula (72 h), the “Activity on schistosomula in the primary screen at 10 μM” value is “retained activity”. For the same compound, the EC50 with S. mansoni schistosomula (setting [3]) came out at 3.69 µM; with S. mansoni schistosomula (setting [4]), 5.42 µM; with S. mansoni schistosomula (setting [5]) it was 4.55 µM.
The like results for `Cc1cccc(Nc2nc3ccc([N+](=O)[O-])cc3nc2Nc2cccc(C)c2)c1` [Compound 20] were, in that order, “particularly active”, “retained activity”, 1.23 µM, 1.62 µM and 1.42 µM.
The like results for `COC(=O)c1ccc(Nc2nc3ccc([N+](=O)[O-])cc3nc2Nc2ccc(C(=O)OC)cc2)cc1` [Compound 23] were, in that order, “particularly active”, “retained activity”, 1.44 µM, 1.23 µM and 1.33 µM.
Turning to `O=[N+]([O-])c1ccc2nc(Nc3ccc(Cl)cc3)c(Nc3ccc(Cl)cc3)nc2c1` [Compound 26, N^2, N^3-bis(4-chlorophenyl)-6-nitroquinoxaline-2,3-diamine], the half-maximal effective concentration (EC50) in the experiment with S. mansoni adult worms (setting [6]) amounted to 20.3 nM; in the experiment with S. mansoni adult worms (setting [7]) it was 20.3 nM; in the experiment with S. mansoni schistosomula (setting [8]) it was 0.41 µM; in the experiment with S. mansoni schistosomula (setting [9]), 0.39 µM; in the experiment on S. mansoni schistosomula (setting [10]), 0.42 µM; in the experiment on S. mansoni schistosomula (setting [11]), 0.39 µM. The concentration for a half-maximal effect (EC50) in the experiment with S. mansoni schistosomula (setting [12]) worked out at 0.42 µM. Also, the “Effect on S. japonicum adult male worms” value in experiment [1] was “decreased motility starting at 48 h”. The “SEVERITY SCORES 5 h” value in experiment [1] (S. japonicum) amounted to 0. Besides, the “SEVERITY SCORES 24 h” value in experiment [1] (S. japonicum, 24 h) is reported as 0. Besides, the “SEVERITY SCORES 48 h” value in experiment [1] (S. japonicum) is given as 1. For the same compound, the “DESCRIPTORS 48 h” value in experiment [1] (setting [13]) was “S”. Moreover, in experiment [1] (S. japonicum), the “SEVERITY SCORES 72 h” value is 2 and 1. Besides, the “DESCRIPTORS 72 h” value in experiment [1] (setting [13]) was “S, on sides and S”.
As to `O=[N+]([O-])c1ccc2nc(Nc3ccc(C(F)(F)F)cc3)c(Nc3ccc(C(F)(F)F)cc3)nc2c1` [Compound 31, 6-nitro-N2, N3-bis(4-(trifluoromethyl)phenyl)quinoxaline-2,3-diamine], the EC50 in the experiment with S. mansoni adult worms (setting [6]) is 7.7 nM; in the experiment on S. mansoni adult worms (setting [7]), 7.7 nM; in the experiment on S. mansoni schistosomula (setting [8]), 0.31 µM; in the experiment on S. mansoni schistosomula (setting [9]) it was 0.28 µM; in the experiment with S. mansoni schistosomula (setting [10]), 0.34 µM; with S. mansoni schistosomula (setting [11]), 0.28 µM. In the experiment with S. mansoni schistosomula (setting [12]), the half-maximal effective concentration (EC50) was determined as 0.34 µM. Further, the “Onset time on S. haematobium” value in experiment [2] is listed as ≤ 24 h. The “Effect on S. haematobium adult worms” value in experiment [2] (5, 24, 48 and 72 h) is reported as “best activity”. In addition, the “SEVERITY SCORES 5 h” value turned out to be 0 in experiment [2] (S. haematobium, 5 h, max = 4, one line per replicate) and 0 in experiment [1] (S. japonicum). Further, the “SEVERITY SCORES 24 h” value in experiment [2] (S. haematobium, 24 h, max = 4, one line per replicate) is given as 2; in experiment [1] (S. japonicum, 24 h), 0. Further, the “DESCRIPTORS 24 h” value is reported as “S, on sides; also recorded: S, onsides” in experiment [2] (S. haematobium, 24 h, one line per replicate) and “Dark, S, on sides” in experiment [1] (S. japonicum, 24 h, one line per replicate). For the same compound, the “SEVERITY SCORES 48 h” value is listed as 2 in experiment [2] (S. haematobium, 48 h, max = 4, one line per replicate) and 4 in experiment [1] (S. japonicum). The “DESCRIPTORS 48 h” value in experiment [2] (S. haematobium, 48 h, one line per replicate) is “S, on sides; also recorded: S, onsides”; in experiment [1] (setting [13]), “Dying, deg”. The “SEVERITY SCORES 72 h” value in experiment [2] (S. haematobium, 72 h, max = 4, one line per replicate) came out at 3; in experiment [1] (S. japonicum), 4. For the same compound, the “DESCRIPTORS 72 h” value in experiment [2] (S. haematobium, 72 h, one line per replicate) was “S, dark on sides”; in experiment [1] (setting [13]) it was “Dying, D”. The “Onset time on S. japonicum” value in experiment [1] was ≤ 24 h. The “Effect on S. japonicum adult male worms” value in experiment [1] is reported as “essentially lethal”.
For `COc1ccc(Nc2nc3ccc([N+](=O)[O-])cc3nc2Nc2ccc(OC)c(C(F)(F)F)c2)cc1C(F)(F)F` [Compound 35, N2, N3-bis(4-methoxy-3-(trifluoromethyl)phenyl)-6-nitroquinoxaline-2,3-diamine], the concentration for a half-maximal effect (EC50) was 44 nM in the experiment on S. mansoni adult worms (setting [6]); 44 nM in the experiment with S. mansoni adult worms (setting [7]); 0.66 µM in the experiment on S. mansoni schistosomula (setting [8]); 0.69 µM with S. mansoni schistosomula (setting [9]); 0.63 µM in the experiment with S. mansoni schistosomula (setting [10]); 0.69 µM in the experiment on S. mansoni schistosomula (setting [11]). In addition, the 50% effective concentration (EC50) with S. mansoni schistosomula (setting [12]) was 0.63 µM. Also, the “Effect on S. japonicum adult male worms” value in experiment [1] was “no appreciable activity”. Moreover, in experiment [1] (S. japonicum), the “SEVERITY SCORES 5 h” value came to 0. The “SEVERITY SCORES 24 h” value in experiment [1] (S. japonicum, 24 h) was determined as 0. For the same compound, the “SEVERITY SCORES 48 h” value in experiment [1] (S. japonicum) stood at 0. Further, in experiment [1] (S. japonicum), the “SEVERITY SCORES 72 h” value was determined as 0.
`O=[N+]([O-])c1ccc2nc(NCCc3ccccc3)c(NCCc3ccccc3)nc2c1` [Compound 37, 6-nitro-N2, N3-diphenethylquinoxaline-2,3-diamine]: the EC50 came to 195 nM in the experiment with S. mansoni adult worms (Table 3, read-out: Anti-schistosomal activity EC50 (μM) Adult Motility); 195 nM with S. mansoni adult worms (setting [7]); 1.84 µM with S. mansoni schistosomula (setting [8]); 1.47 µM with S. mansoni schistosomula (setting [9]); 2.2 µM in the experiment on S. mansoni schistosomula (setting [10]); 1.47 µM in the experiment with S. mansoni schistosomula (Table 3, read-out: Anti-schistosomal activity EC50 (μM) Schistosomula Motility). In addition, the EC50 in the experiment with S. mansoni schistosomula (Table 3, read-out: Anti-schistosomal activity EC50 (μM) Schistosomula Phenotype) worked out at 2.2 µM.
